Measurements reported in ChEMBL document CHEMBL4000166, “Stachybotrysin, an Osteoclast Differentiation Inhibitor from the Marine-Derived Fungus Stachybotrys sp. KCB13F013” (J Nat Prod, 2016).
Calls of active or inactive are those of the source. The rule behind the calls is not given here.

How the values were obtained:
[1] = biological target: T1, NF-kappa-B inhibitor alpha (Mus musculus) (UniProt Q9Z1E3); test: Effect on IkappaBalpha phosphorylation in mouse BMMC at 5 ug/ml preincubated with M-CSF for 6 mins followed by RANKL addition measured after 5 to 30 mins by Western blot method
T1 sequence (whole entry): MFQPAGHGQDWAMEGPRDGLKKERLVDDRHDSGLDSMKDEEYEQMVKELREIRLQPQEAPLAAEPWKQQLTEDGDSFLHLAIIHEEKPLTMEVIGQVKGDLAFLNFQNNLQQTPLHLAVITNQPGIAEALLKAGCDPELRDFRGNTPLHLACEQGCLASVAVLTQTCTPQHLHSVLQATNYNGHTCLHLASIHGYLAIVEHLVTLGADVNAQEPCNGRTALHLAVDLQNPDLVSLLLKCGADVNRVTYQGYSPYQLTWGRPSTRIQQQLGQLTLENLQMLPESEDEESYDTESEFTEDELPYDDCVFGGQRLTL

BMMC [2] = test: Inhibition of M-CSF/RANKL-induced osteoclast differentiation in mouse BMMC after 4 days by TRAP staining method; type: functional, cell-based
[3] = biological target: MAP kinase p38 (Mus musculus) (UniProt P47811+O08911+Q9WUI1+Q9Z1B7); test: Inhibition of M-CSF/RANKL-induced p38 phosphorylation in mouse BMMC at 5 ug/ml preincubated with M-CSF for 6 mins followed by RANKL addition measured after 5 mins by Western blot method
Mus musculus [4] = organism: Mus musculus; test: Inhibition of M-CSF/RANKL-induced JNK phosphorylation in mouse BMMC at 5 ug/ml preincubated with M-CSF for 6 mins followed by RANKL addition measured after 5 mins by Western blot method
Mus musculus [5] = organism: Mus musculus; test: Inhibition of M-CSF/RANKL-induced ERK phosphorylation in mouse BMMC at 5 ug/ml preincubated with M-CSF for 6 mins followed by RANKL addition measured after 5 mins by Western blot method
BMMC [6] = test: Inhibition of M-CSF/RANKL-induced osteoclast differentiation in mouse BMMC at 5 to 10 ug/ml after 4 days by TRAP staining method; type: functional, cell-based

## CC(=O)/C=C/c1c(CO)cc(O)c2c1O[C@]1(C2)[C@H](C)CC[C@H]2C(C)(C)[C@H](O)CC[C@@]21C
[1]
  Activity: inactive
BMMC [2]
  inhibition: Dose-dependent effect
[3]
  inhibition: Active
Mus musculus [4]
  inhibition: Active
Mus musculus [5]
  inhibition: Active

## C[C@@H]1CC[C@H]2C(C)(C)[C@H](O)CC[C@]2(C)[C@@]12Cc1c(O)cc3c(c1O2)C(=O)OC3
BMMC [6]
  inhibition: inactive
